From patent publication US20080207614A1, “QUINAZOLINE DERIVATIVES FOR THE TREATMENT AND PREVENTION OF DIABETES AND OBESITY” (SK CHEMICALS CO., LTD., priority 2004, published 2008) come the findings set out here.

Each structure is given as a SMILES string.

Assay [1] deals with C2C12 muscle cells. The assay is described as follows: Analysis of glucose absorption (2-deoxyglucose) in differentiated C2C12 muscle cells. The class given is cell-based. Conditions: test materials 10 μM, times relative to control group. Summed up:
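Differentiated C2C12 myotubes (6 days in 1% serum) held 3 h in KRB with 5 mM glucose, then given test material at 10 μM. After 30 min, 0.2 μCi 2-deoxyglucose added for 20 min; uptake measured by radioactive counting of NaOH lysates.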

Assay [2] concerns AMPK. Description: Measurement of AMPK activity by Western blot in C2C12 cells. Further details: key to AMPK activity (degree of phosphorylation of serine-79 and threonine-172): fold increase in threonine-172 phosphorylation. The class given is cell-based. Conditions: 10 μM for 50 minutes; for AMPK activity (degree of phosphorylation of serine-79 and threonine-172): no superscript: Western blot of serine-79 and threonine-172 phosphorylation; for AMPK activity (class: degree of phosphorylation of threonine-172): strong/mild/weak. As to the method:
C2C12 cells were cultured and differentiated in the same manner as in Experimental Example 1. Treatment with the test materials was also performed in the same manner as in Experimental Example 1 (10 μM for 50 minutes). The culture medium was removed and the cells were washed for 2 times with PBS and protein extracts were obtained using a lysis buffer (50 mM tris-HCl, pH 7.4, 1% NP-40, 0.25% sodium deoxycholate, 150 mM NaCl, 1 mM EDTA, 1 mM PMSF, 1 mM sodium o-vanadate, 1 mM NaF, 1 μg/mL apronitin, 1 μg/mL leu-peptin, 1 μg/mL pepstatin). The AMPK activity was determined from Western blot analysis of the degree of phosphorylation of serine-79 […] acetyl CoA carboxylase and the degree of phosphorylation of threonine-172. The amount of ERK (extracellular signal regulated protein kinase) was confirmed by Western blot in order to quantify the proteins.
The result of Western blot analysis is given in Table 3 below, wherein “strong” means that the degree of phosphorylation of threonine-172 increased by 3 times or more, “mild” means that the degree of phosphorylation of threonine-172 increased by 1 to 3 times and “weak” means that the degree of phosphorylation of threonine-172 increased by less than 1 time.
Background: In western blotting, separated proteins are transferred to a membrane and probed.

Regarding `Brc1ccc(CCNc2nc(-c3ccccc3)nc3ccccc23)cc1` [Compound 137, [2-(4-Bromophenyl)-ethyl]-(2-phenylquinazolino-4-yl)-amine], the Glucose absorption in assay [1] is on record as 2.4. Further, in assay [2], the “AMPK activity (degree of phosphorylation of serine-79 and threonine-172)” value is reported as 3.1; the “AMPK activity (class: degree of phosphorylation of threonine-172)” value is “strong (“strong” means that the degree of phosphorylation of threonine-172 increased by 3 times or more)”.

Turning to `CCSc1nc(NCCCCc2ccccc2)c2ccccc2n1` [Compound 30, (2-Ethylsulfanylquinazolino-4-yl)-(4-phenylbutyl)-amine], the Glucose absorption in assay [1] is given as 1.8. The “AMPK activity (class: degree of phosphorylation of threonine-172)” value in assay [2] is reported as “mild (“mild” means that the degree of phosphorylation of threonine-172 increased by 1 to 3 times)”.

Molecule `COc1cc(CNc2nc(-c3ccco3)nc3ccccc23)cc(OC)c1OC` [Compound 345, (2-Furano-2-ylquinazolino-4-yl)-(3,4,5-trimethoxybenzyl)-amine] registered a Glucose absorption in assay [1] of 1.3. Also, the “AMPK activity (degree of phosphorylation of serine-79 and threonine-172)” value in assay [2] was 1.1.

The molecule `COc1cccc(CNc2nc(C3CC3)nc3ccccc23)c1` [Compound 383, (2-Cyclopropylquinazolino-4-yl)-(3-methoxybenzyl)-amine] came in with a Glucose absorption in assay [1] of 1.4. The “AMPK activity (degree of phosphorylation of serine-79 and threonine-172)” value in assay [2] came out at 2.2.

`COc1ccc(CNc2nc(C3CC3)nc3ccccc23)cc1OC` [Compound 388, (2-Cyclopropylquinazolino-4-yl)-(3,4-dimethoxybenzyl)-amine] came in with a Glucose absorption in assay [1] of 1.2. Besides, the “AMPK activity (degree of phosphorylation of serine-79 and threonine-172)” value in assay [2] amounted to 2.8.

As for `COc1ccc(CNc2nc(C(C)C)nc3ccccc23)cc1OC` [Compound 324, (3,4-Dimethoxybenzyl)-(2-isopropylquinazolino-4-yl)-amine], the Glucose absorption in assay [1] is on record as 1.3. The “AMPK activity (degree of phosphorylation of serine-79 and threonine-172)” value in assay [2] stood at 2.3.

`CC(C)c1nc(NCc2cccc(C(F)(F)F)c2)c2ccccc2n1` [Compound 178, (2-Isopropylquinazolino-4-yl)-(3-trifluoromethylbenzyl)-amine] had a Glucose absorption in assay [1] of 4.2. In assay [2], the “AMPK activity (degree of phosphorylation of serine-79 and threonine-172)” value is listed as 5.7; the “AMPK activity (class: degree of phosphorylation of threonine-172)” value is recorded as “strong (“strong” means that the degree of phosphorylation of threonine-172 increased by 3 times or more)”.

As for `COc1ccc(CNc2nc(-c3ccccc3)nc3ccccc23)c(OC)c1` [Compound 144, (2,4-Dimethoxybenzyl)-(2-phenylquinazolino-4-yl)-amine], the Glucose absorption in assay [1] is given as 1.3. In assay [2], the “AMPK activity (degree of phosphorylation of serine-79 and threonine-172)” value was 2.1; the “AMPK activity (class: degree of phosphorylation of threonine-172)” value is “strong (“strong” means that the degree of phosphorylation of threonine-172 increased by 3 times or more)”.

Consider `CC(C)CCNc1nc(-c2ccccc2)nc2ccccc12` [Compound 130, (3-Methylbutyl)-(2-phenylquinazolino-4-yl)-amine], for which the Glucose absorption in assay [1] is recorded as 2.2. Moreover, in assay [2], the “AMPK activity (degree of phosphorylation of serine-79 and threonine-172)” value was determined as 1.8; the “AMPK activity (class: degree of phosphorylation of threonine-172)” value is listed as “strong (“strong” means that the degree of phosphorylation of threonine-172 increased by 3 times or more)”.

The molecule `COc1cccc(CNc2nc(C(C)c3ccccc3)nc3ccccc23)c1OC` (stereo not shown) [Compound 375, (2,3-Dimethoxybenzyl)-[2-(1-phenylethyl)-quinazolino-4-yl]-amine] showed a Glucose absorption in assay [1] of 1.1. For the same molecule, the “AMPK activity (degree of phosphorylation of serine-79 and threonine-172)” value in assay [2] is 5.2.

In turn, `COc1ccccc1CNc1ncnc2ccccc12` [Compound 404, (2-Methoxybenzyl)-quinazolino-4-ylamine] had a Glucose absorption in assay [1] of 2.1. Moreover, the “AMPK activity (degree of phosphorylation of serine-79 and threonine-172)” value in assay [2] stood at 1.9.

For `COc1cc(CNc2nc(-c3ccccc3)nc3ccccc23)ccc1O` [Compound 113, 2-Methoxy-4-[(2-phenylquinazolino-4-ylamino)-methyl]-phenol], in assay [1], the Glucose absorption is listed as 2.1. In assay [2], the “AMPK activity (degree of phosphorylation of serine-79 and threonine-172)” value came out at 2.1; the “AMPK activity (class: degree of phosphorylation of threonine-172)” value is “strong (“strong” means that the degree of phosphorylation of threonine-172 increased by 3 times or more)”.

With `CC(C)(C)c1nc(NCCc2ccccc2)c2ccccc2n1` [Compound 191, (2-tert-Butylquinazolino-4-yl)-phenethylamine], the Glucose absorption in assay [1] came out at 2.4. Further, in assay [2], the “AMPK activity (degree of phosphorylation of serine-79 and threonine-172)” value turned out to be 5.2; the “AMPK activity (class: degree of phosphorylation of threonine-172)” value was “strong (“strong” means that the degree of phosphorylation of threonine-172 increased by 3 times or more)”.

In assay [1], `CCSc1nc(NCc2cccc3ccccc23)c2ccccc2n1` [Compound 35, (2-Ethylsulfanylquinazolino-4-yl)-naphthaleno-1-ylmethyl amine] registered a Glucose absorption of 1.9. For the same molecule, the “AMPK activity (class: degree of phosphorylation of threonine-172)” value in assay [2] was “strong (“strong” means that the degree of phosphorylation of threonine-172 increased by 3 times or more)”.

Molecule `COc1cccc(CNc2nc(C(C)c3ccccc3)nc3ccccc23)c1` (stereo not shown) [Compound 372, (3-Methoxybenzyl)-[2-(1-phenylethyl)-quinazolino-4-yl]-amine] displayed a Glucose absorption in assay [1] of 1.1. Moreover, the “AMPK activity (degree of phosphorylation of serine-79 and threonine-172)” value in assay [2] was 6.3.

With `CC(C)CC(C)Nc1nc(-c2ccccc2)nc2ccccc12` (stereo not shown) [Compound 125, (1,3-Dimethylbutyl)-(2-phenylquinazolino-4-yl)-amine], the Glucose absorption in assay [1] was 2.8. Besides, in assay [2], the “AMPK activity (degree of phosphorylation of serine-79 and threonine-172)” value is on record as 1.8; the “AMPK activity (class: degree of phosphorylation of threonine-172)” value is recorded as “strong (“strong” means that the degree of phosphorylation of threonine-172 increased by 3 times or more)”.

The molecule `COc1cc(CNc2nc(C3CC3)nc3ccccc23)cc(OC)c1OC` [Compound 389, (2-Cyclopropylquinazolino-4-yl)-(3,4,5-trimethoxybenzyl)-amine] showed a Glucose absorption in assay [1] of 1.3. Moreover, the “AMPK activity (degree of phosphorylation of serine-79 and threonine-172)” value in assay [2] turned out to be 2.2.

For `COc1ccccc1CNc1nc(N2CCN(C)CC2)nc2ccccc12` [Compound 278, (2-Methoxybenzyl)-[2-(4-methylpiperazino-1-yl)-quinazolino-4-yl]-amine], the “AMPK activity (degree of phosphorylation of serine-79 and threonine-172)” value in assay [2] worked out at 1.2.

With `COc1cc(OC)c(CNc2nc(N3CCOCC3)nc3ccccc23)c(OC)c1` [Compound 317, (2-Morpholino-4-ylquinazolino-4-yl)-(2,4,6-trimethoxybenzyl)-amine], in assay [2], the “AMPK activity (degree of phosphorylation of serine-79 and threonine-172)” value turned out to be 0.3.

For `COc1ccc(CNc2nc(N3CCN(C)CC3)nc3ccccc23)c(OC)c1` [Compound 294, (2,4-Dimethoxybenzyl)-[2-(4-methylpiperazino-1-yl)-quinazolino-4-yl]-amine], the “AMPK activity (degree of phosphorylation of serine-79 and threonine-172)” value in assay [2] came out at 0.4.

With `COc1cc(CNc2nc(N3CCCCC3)nc3ccccc23)cc(OC)c1OC` [Compound 312, (2-Piperidino-1-ylquinazolino-4-yl)-(3,4,5-trimethoxybenzyl)-amine], the “AMPK activity (degree of phosphorylation of serine-79 and threonine-172)” value in assay [2] was 0.3.

Turning to `COc1ccc(CNc2nc(C(OC)c3ccccc3)nc3ccccc23)cc1OC` (stereo not shown) [Compound 366, (3,4-Dimethoxybenzyl)-[2-(methoxyphenylmethyl)-quinazolino-4-yl]-amine], the “AMPK activity (degree of phosphorylation of serine-79 and threonine-172)” value in assay [2] was found to be 1.6.
